For assay [1], the system named is DNA Pol I (Klenow fragment, exo-). The assay is described as follows: steady-state kinetics of single nucleotide insertions, thymidine analogues in the template. Set-up: efficiency: unit not given here. As to conditions: for efficiency as analog of thymidine in a template strand (summary): Example 4, dATP insertion; for Km / Vmax / efficiency / Rel. efficiency: Example 4: incorporating dATP opposite template thymidine analog; for Rel. efficiency: T template = 1. Format: biochemical, E. coli. On the procedure:
(§1) In vitro steady-state kinetics. As polymerase substrates we used 28 mer/23 mer template-primer duplexes having the sequence (5′-ACT GXT CTCCCTATAGTGAGTCGTATTA [SEQ ID NO:1])·(5′-TAATACGACTCACTATAGGGAGA [SEQ ID NO:2]). Kinetics were measured at 37° C. in a buffer containing 10 mM Mg^2+. The primer was 5′ end-labeled and was extended by the polymerase in the presence of a single dNTP species over varied concentration and time. Products of single nucleotide insertions were resolved from unreacted primer by 20% denaturing gel electrophoresis, and were quantitated by autoradiography. Details of the kinetics experiments are given in the Supporting Data.
(§2) We chose DNA polymerase I (Klenow fragment, exonuclease-deficient) as an ideal candidate for initial study, as it is enzymatically well-characterized among replicative enzymes, and yet is relatively small and acts as a single subunit. We carried out kinetics studies of single nucleotide insertions in the steady state, using a gel electrophoresis-based assay.
(§3) Data for single nucleotide insertion kinetics in the steady-state. The enzyme was the Klenow fragment of DNA pol I from E. coli (exonuclease deficient). Methods are as described above.

Assay [2] shares this test system. The assay is described as follows: steady-state kinetics of single nucleotide insertions, incoming nucleotide analogues (dNTP/dXTP). As to conditions: for rel. efficiency: relative to insertion of dTTP opposite A. It counts as biochemical, E. coli. On the procedure:
as §1, §2, §3

Setting [3] is: dNTP inserted opposite template base A, 37° C.
Setting [4] is: dNTP inserted opposite template base A, 37° C., 10 mM MgCl2, pH 7.5, normalized to lowest enzyme concentration.
[5] abbreviates: dNTP inserted opposite template base A.
Setting [6] is: dNTP inserted opposite template base C, 37° C.
The mark [7] stands for this setting: dNTP inserted opposite template base C, 37° C., 10 mM MgCl2, pH 7.5, normalized to lowest enzyme concentration.
Where [8] appears, read: dNTP inserted opposite template base C.
Where [9] appears, read: dNTP inserted opposite template base G, 37° C.
[10] abbreviates: dNTP inserted opposite template base G, 37° C., 10 mM MgCl2, pH 7.5, normalized to lowest enzyme concentration.
[11] abbreviates: dNTP inserted opposite template base G.
Setting [12] is: dNTP inserted opposite template base T, 37° C.
The mark [13] stands for this setting: dNTP inserted opposite template base T, 37° C., 10 mM MgCl2, pH 7.5, normalized to lowest enzyme concentration.
[14] abbreviates: dNTP inserted opposite template base T.
The mark [15] stands for this setting: Example 4: incorporating dXTP opposite adenine in a DNA template.

We go through 13 compounds from US7473683B2, “Nonpolar thymidine analogs” (The Board of Trustees of the Leland Stanford Junior …, priority 2005, dated 2009).

What is called Km is the substrate concentration at which the rate is half of its maximum. Consider `Cc1cc([C@H]2C[C@@H](O)[C@@H](CO)O2)c(Cl)cc1Br` [2C4B], for which, in assay [1], the “efficiency as analog of thymidine in a template strand (summary)” value (shortened to “efficiency as analog of thymidine”) is “probably as good”, the Km was determined as 4.18 ± 0.47 µM, the Vmax is 30.4709 ± 0.8544 and the efficiency result was “(7.38 ± 1.07) × 10^6”. In assay [1], the Rel. efficiency is 4.0 × 10^−1.
As to `Cc1cc(C2CC(O)C(COP(=O)(O)OP(=O)(O)OP(=O)(O)O)O2)c(F)cc1F` (centres unmarked) [dFTP, reference compound], the Km was determined as 29 ± 10 µM in assay [2] (setting [3]), 200 ± 110 µM in assay [2] (setting [6]), 300 ± 120 µM in assay [2] (setting [9]) and 37 ± 15 µM in assay [2] (setting [12]). Further, the Vmax in assay [2] (setting [4]) stood at 2.9 ± 0.1 % · min^−1; in assay [2] (setting [7]), 0.012 ± 0.004 % · min^−1; in assay [2] (setting [10]), 0.0067 ± 0.0017 % · min^−1; in assay [2] (setting [13]), 0.0066 ± 0.0010 % · min^−1. Further, the rel. efficiency in assay [2] (setting [5]) was 6.3 × 10^−3; in assay [2] (setting [8]), 3.8 × 10^−6; in assay [2] (setting [11]) it was 1.4 × 10^−6; in assay [2] (setting [14]), 1.1 × 10^−5.
As to `Cc1cn([C@H]2C[C@H](O)[C@@H](COP(=O)(O)OP(=O)(O)OP(=O)(O)O)O2)c(=O)[nH]c1=O` [dTTP, reference compound], the Km in assay [2] (setting [15]) is 1.56 ± 1 µM; in assay [2] (setting [3]), 1.9 ± 0.4 µM; in assay [2] (setting [6]), 510 ± 400 µM; in assay [2] (setting [9]), 140 ± 86 µM; in assay [2] (setting [12]), 63 ± 18 µM. Further, the Vmax turned out to be 30.70 ± 12.0 in assay [2] (setting [15]); 30 ± 3 % · min^−1 in assay [2] (setting [4]); 0.067 ± 0.040 % · min^−1 in assay [2] (setting [7]); 0.42 ± 0.18 % · min^−1 in assay [2] (setting [10]); 0.010 ± 0.002 % · min^−1 in assay [2] (setting [13]). The efficiency entry in assay [2] (setting [15]) is recorded as “(2.29 ± 0.9) × 10^7”. This compound displayed a Rel. efficiency in assay [2] (Example 4: incorporating dXTP opposite adenine in a DNA template, dTTP = 1) of 1. Further, the rel. efficiency in assay [2] (setting [5]) is 1; in assay [2] (setting [8]) it was 6.3 × 10^−6; in assay [2] (setting [11]) it was 2.5 × 10^−4; in assay [2] (setting [14]), 1.0 × 10^−5.
As to `Cc1cccc(C2CC(O)C(COP(=O)(O)OP(=O)(O)OP(=O)(O)O)O2)c1` (centres unmarked) [dHTP], the Km in assay [2] (setting [3]) was found to be 110 ± 20 µM; in assay [2] (setting [6]), 310 ± 170 µM; in assay [2] (setting [9]), 200 ± 90 µM; in assay [2] (setting [12]), 59 ± 27 µM. Further, the Vmax in assay [2] (setting [4]) is 0.11 ± 0.20 % · min^−1; in assay [2] (setting [7]), 0.0067 ± 0.0023 % · min^−1; in assay [2] (setting [10]) it was 0.0065 ± 0.0016 % · min^−1; in assay [2] (setting [13]), 0.0046 ± 0.0011 % · min^−1. Moreover, the rel. efficiency is given as 6.3 × 10^−5 in assay [2] (setting [5]), 1.4 × 10^−6 in assay [2] (setting [8]), 2.0 × 10^−6 in assay [2] (setting [11]) and 4.9 × 10^−6 in assay [2] (setting [14]).
With `Cc1cc(C2CC(O)C(COP(=O)(O)OP(=O)(O)OP(=O)(O)O)O2)c(I)cc1I` (centres unmarked) [dITP], the Km in assay [2] (setting [3]) worked out at 18 ± 2 µM; in assay [2] (setting [6]) it was 23 ± 1 µM; in assay [2] (setting [9]), 43 ± 7 µM; in assay [2] (setting [12]), 37 ± 7 µM. The Vmax in assay [2] (setting [4]) was found to be 1.8 ± 0.1 % · min^−1; in assay [2] (setting [7]), 0.0023 ± 0.0004 % · min^−1; in assay [2] (setting [10]), 0.0020 ± 0.0001 % · min^−1; in assay [2] (setting [13]) it was 0.23 ± 0.02 % · min^−1. For the same compound, the rel. efficiency in assay [2] (setting [5]) is 6.3 × 10^−3; in assay [2] (setting [8]) it was 6.3 × 10^−6; in assay [2] (setting [11]), 2.9 × 10^−6; in assay [2] (setting [14]), 3.9 × 10^−4.
Regarding `Cc1cc([C@H]2C[C@@H](O)[C@@H](CO)O2)c(Cl)cc1Cl` [2C4C, 2,4-dichlorotoluene], the “efficiency as analog of thymidine” value in assay [1] was “most efficient analog overall”.
Turning to `Cc1cc([C@H]2C[C@@H](O)[C@@H](CO)O2)cc(Cl)c1Cl` [3,4-di-C], in assay [1], the Michaelis-Menten constant (Km) was 55 ± 24 µM, the Vmax came out at 0.4291 ± 0.1095, the efficiency entry was “(8.30 ± 1.55) × 10^3” and the Rel. efficiency is recorded as 4.5 × 10^−4.
As for `Cc1cc(C2CC(O)C(COP(=O)(O)OP(=O)(O)OP(=O)(O)O)O2)c(Br)cc1Br` (centres unmarked) [dBTP], the Km in assay [2] (setting [3]) was 23 ± 6 µM; in assay [2] (setting [6]) it was 74 ± 22 µM; in assay [2] (setting [9]), 50 ± 10 µM; in assay [2] (setting [12]), 38 ± 21 µM. For the same compound, the Vmax in assay [2] (setting [4]) was 13 ± 2 % · min^−1; in assay [2] (setting [7]), 0.016 ± 0.001 % · min^−1; in assay [2] (setting [10]), 0.0094 ± 0.0004 % · min^−1; in assay [2] (setting [13]) it was 0.8 ± 0.16 % · min^−1. Besides, the rel. efficiency in assay [2] (setting [5]) was 3.6 × 10^−2; in assay [2] (setting [8]), 1.4 × 10^−5; in assay [2] (setting [11]) it was 1.2 × 10^−5; in assay [2] (setting [14]), 1.3 × 10^−3.
For the compound `Cc1cc([C@H]2C[C@@H](O)[C@@H](CO)O2)ccc1Cl` [2H4C], in assay [1], the Km worked out at 31.5 ± 8.91 µM, the Vmax turned out to be 2.8214 ± 0.5396, the efficiency entry was “(9.81 ± 1.58) × 10^4” and the Rel. efficiency is recorded as 5.3 × 10^−3.
On to `Cc1cc(C2CC(O)C(COP(=O)(O)OP(=O)(O)OP(=O)(O)O)O2)c(Cl)cc1Cl` (centres unmarked) [dLTP], for which the “efficiency lower than for insertion of natural dTTP” value in assay [2] (dNTP analog inserted opposite adenine) was 7 fold. The Km in assay [2] (setting [3]) was found to be 18 ± 5 µM; in assay [2] (setting [6]), 160 ± 66 µM; in assay [2] (setting [9]) it was 110 ± 30 µM; in assay [2] (setting [12]), 62 ± 21 µM. The Vmax was found to be 39 ± 4 % · min^−1 in assay [2] (setting [4]), 0.050 ± 0.010 % · min^−1 in assay [2] (setting [7]), 0.035 ± 0.004 % · min^−1 in assay [2] (setting [10]) and 0.54 ± 0.10 % · min^−1 in assay [2] (setting [13]). In addition, the rel. efficiency is recorded as 1.4 × 10^−1 in assay [2] (setting [5]), 1.9 × 10^−5 in assay [2] (setting [8]), 2.0 × 10^−5 in assay [2] (setting [11]) and 5.4 × 10^−4 in assay [2] (setting [14]).
Take `Cc1cc(Cl)cc([C@H]2C[C@@H](O)[C@@H](CO)O2)c1` [3C]: in assay [1], the Km came out at 51.9 ± 1.9 µM, the Vmax is recorded as 0.4378 ± 0.1116, the efficiency result is “(8.62 ± 0.85) × 10^3” and the Rel. efficiency is given as 4.6 × 10^−4.
Consider `Cc1cccc(C2CC(O)C(CO)O2)c1` (centres unmarked) [dH], for which, in assay [1] (varied-size template nucleoside mimics, insertion of dATP vs mismatch), the “fidelity (efficiency of correct T analog:A pair divided by efficiency of the most efficient mismatch)” value was determined as 45.
For the compound `Cc1cc([C@H]2C[C@@H](O)[C@@H](CO)O2)c(F)cc1Cl` [2F4C], in assay [1], the “efficiency as analog of thymidine” value was “probably as good”, the Michaelis-Menten constant (Km) came to 7.51 ± 2.79 µM, the Vmax amounted to 49.7002 ± 1.5432 and the efficiency result was “(7.13 ± 2.13) × 10^6”. Further, the Rel. efficiency in assay [1] is on record as 3.8 × 10^−1.
